{"source": "patent US20150315218A1", "about": "“SALTS OF PRODRUGS OF PIPERAZINE AND SUBSTITUTED PIPERIDINE ANTIVIRAL AGENTS” (Bristol-Myers Squibb Company, priority 2004, published 2015)", "key": {"[1]": {"assay": "Single-dose toxicokinetic and tolerability study of prodrugs in dogs", "assay_type": "in vivo, dog", "conditions": "for clinical signs, body weight and food consumption / emesis: oral prodrug", "method_in_brief": "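Female dogs (two/group) received prodrug Iab orally once daily at 24, 90 or 240 mg/kg (free acid) as aqueous solution or dry-filled capsules, one-week washouts between doses. Ibb and Icb given to one dog/sex/group as capsules, then aqueous 25 mg/kg or capsules 46 or 125 mg/kg BID. Clinical signs, body weight, food intake and plasma toxicokinetics monitored.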"}, "[2]": {"assay": "IV and PO pharmacokinetic studies of prodrug salts (Iab, Ibb, Icb) in the dog, with historical parent data", "assay_type": "in vivo, beagle dogs", "method_in_brief": "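Male beagle dogs (n=3), IV 5-min cephalic infusion (e.g. Iab 1.2 mg/kg, Icb 1.3 mg/kg free acid) or PO gavage after overnight fast (Iab 6.6 mg/kg free acid), crossover with two-week washout. Serial blood sampled predose to 24 h.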"}, "[3]": {"assay": "Single-dose oral toxicokinetic study of prodrugs in rats", "assay_type": "in vivo, rat", "conditions": "for half-life / AUC / Cmax: plasma; for C24 h: mean", "method_in_brief": "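Male rats, three per group, received a single oral gavage dose of prodrug salt dissolved in water. Doses were 16, 72 or 267 mg/kg (Iab), 19, 64 or 236 mg/kg (Ibb), and 5, 25 or 200 mg/kg (Icb), all as free acid. Plasma toxicokinetics of prodrug and parent IVa were followed in individual animals.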"}, "[4]": {"conditions": "male, beagle, plasma, after IV prodrug, analyte = label, read-out: t1/2 (hr), IV (converted)"}, "[5]": {"conditions": "male, beagle, plasma, prodrug after IV administration, read-out: CLtot (mL/min/kg), IV"}, "[6]": {"conditions": "male, beagle, plasma, prodrug after IV administration, read-out: Vdss (L/kg), IV"}, "[7]": {"conditions": "male, beagle, in vivo, iv, 1.28 mg/kg"}}, "note": "“Also recorded” adds a separate entry of the source. Counter-ions that a name gives are not always drawn. Like-named read-outs stand apart in the source and are kept apart here."}
{"molecule": "COc1cnc(OC)c2c1c(C(=O)C(=O)N1CCN(C(=O)c3ccccc3)CC1)cn2COP(=O)(O)O", "note": "[Iab, {3-[(4-benzoylpiperazin-1-yl)(oxo)acetyl]-4,7-dimethoxy-1H-pyrrolo[2,3-c]pyridin-1-yl}methyl dihydrogen phosphate, L-lysine salt (1:1)]", "values": [{"measurement": "percentage of estimated total dose lost in vomit", "setting": "[1]; Dog #1201 (90 mg/kg Iab)", "value": "< 1", "unit": "%"}, {"measurement": "percentage of estimated total dose lost in vomit", "setting": "[1]; Dog #2201 (240 mg/kg Iab)", "value": "≈ 90%"}, {"measurement": "percentage of estimated total dose lost in vomit", "setting": "[1]; Dog #2202 (240 mg/kg Iab)", "value": "≈ 9%"}, {"measurement": "clinical signs, body weight and food consumption", "setting": "[1]; dogs", "value": "Other than emesis, there were no clinical signs observed, and there no effects on body weight and food consumption"}, {"measurement": "emesis", "setting": "[1]; dogs", "value": "Emesis was observed at about 30 minutes after dosing in both dogs given 90 mg/kg; also recorded: Emesis was observed in Dogs #1201, #2201, and #2202 about 1 hour after dosing"}, {"measurement": "concentration at 1 h", "setting": "[1]; female, dog, plasma, oral, dogs, 1 hour post dose, Iab 90-240 mg/kg phase, read-out: prodrug detected in plasma", "value": "5 to 49", "unit": "nM"}, {"measurement": "concentration at 2 h", "setting": "[1]; female, dog, plasma, oral, dogs, 2 hours post dose, Iab 90-240 mg/kg phase, read-out: prodrug detected in plasma", "value": "5 to 6", "unit": "nM"}, {"measurement": "prodrug in the plasma samples", "setting": "[1]; initial phase, Iab 24 or 90 mg/kg", "value": "not detected"}, {"measurement": "AUC", "setting": "[2]; male, beagle, plasma, after IV prodrug (~1 mg/kg parent equivalent), analyte = label, read-out: AUCtot (μM · hr), IV", "value": "0.56 ± 0.12", "unit": "µM·h"}, {"measurement": "half-life", "setting": "[2]; [4]", "value": 0.15, "unit": "h"}, {"measurement": "clearance", "setting": "[2]; [5]", "value": 70, "unit": "mL/min/kg"}, {"measurement": "Vd", "setting": "[2]; [6]", "value": 0.3, "unit": "L/kg"}, {"measurement": "half-life", "setting": "[3]; CD, rat, male rats, Iab 16 mg/kg PO, analyte = label, read-out: T½ (converted)", "value": 38.4, "unit": "min"}, {"measurement": "half-life", "setting": "[3]; CD, rat, male rats, Iab 72 mg/kg PO, analyte = label, read-out: T½ (converted)", "value": 22.2, "unit": "min"}, {"measurement": "AUC", "setting": "[3]; CD, rat, male rats, Iab 267 mg/kg PO, AUC from zero to time of last quantifiable sample, read-out: AUC", "value": 0.057, "unit": "µM·h"}, {"measurement": "half-life", "setting": "[3]; CD, rat, male rats, Iab 267 mg/kg PO, analyte = label, read-out: T½ (converted)", "value": 2.7, "unit": "min"}, {"measurement": "Cmax", "setting": "[3]; CD, rat, male rats, single oral dose Iab 16 mg/kg (13 mg/kg IVa molar equiv.), water, analyte = label", "value": 68, "unit": "nM"}, {"measurement": "Cmax", "setting": "[3]; CD, rat, male rats, single oral dose Iab 72 mg/kg (57 IVa equiv.), analyte = label", "value": 95, "unit": "nM"}, {"measurement": "Cmax", "setting": "[3]; CD, rat, male rats, single oral dose Iab 267 mg/kg (211 IVa equiv.), analyte = label", "value": 110, "unit": "nM"}, {"measurement": "C24 h (μM)", "setting": "[3]; male rats, Iab 16 mg/kg PO, analyte = label", "value": "<LLQ^1"}, {"measurement": "C24 h (μM)", "setting": "[3]; male rats, Iab 72 mg/kg PO, analyte = label", "value": "<LLQ"}, {"measurement": "C24 h (μM)", "setting": "[3]; male rats, Iab 267 mg/kg PO, analyte = label", "value": "<LLQ"}, {"measurement": "AUC", "setting": "[3]; male, CD, rat, po, 16 mg/kg, read-out: AUC", "value": 0.02, "unit": "µM·h"}, {"measurement": "AUC", "setting": "[3]; male, CD, rat, po, 72 mg/kg, read-out: AUC", "value": 0.049, "unit": "µM·h"}, {"measurement": "plasma AUC of the prodrug relative to that of the parent", "setting": "[3]; rats, single oral dose of Iab", "value": "≤ 0.03", "unit": "%"}]}
{"molecule": "O=C(C(=O)N1CCN(C(=O)c2ccccc2)CC1)c1cn(COP(=O)(O)O)c2c(-n3ccnn3)ncc(F)c12", "note": "[Ibb, [3-[(4-benzoylpiperazin-1-yl)(oxo)acetyl]-4-fluoro-7-(1H-1,2,3-triazol-1-yl)-1H-pyrrolo[2,3-c]pyridin-1-yl]methyl dihydrogen phosphate, L-lysine salt (1:1)]", "values": [{"measurement": "clinical signs, body weight and food consumption", "setting": "[1]; dogs", "value": "Other than emesis, there were no clinical signs observed, and there were no effects on body weight and food consumption"}, {"measurement": "emesis", "setting": "[1]; dogs", "value": "emesis (white, streaked with red that contained capsule remnants) was observed at about 0.5-1.25 hours after dosing in all dogs given ≧92 mg/kg QD; also recorded: emesis (white or brown) was observed within 2 hours after dosing in all dogs given ≧46 mg/kg BID"}, {"measurement": "T1/2", "setting": "[2]; IV Ibb […] free acid (1.0 of IVb eqv.), mean ± SD, n = 3", "value": "49.8 ± 34.8", "unit": "min"}, {"measurement": "prodrug detected in plasma after oral administration", "setting": "[2]; LLQ = 5 nM", "value": 0.034, "unit": "µM"}, {"measurement": "half-life", "setting": "[2]; [4]", "value": 0.83, "unit": "h"}, {"measurement": "AUC", "setting": "[2]; male, beagle, plasma, po, 7 mg/kg, read-out: AUCtot", "value": 0.059, "unit": "µM·h"}, {"measurement": "Cmax", "setting": "[2]; male, beagle, plasma, po, 7 mg/kg, read-out: Cmax", "value": "34 ± 18", "unit": "nM"}, {"measurement": "Tmax", "setting": "[2]; male, beagle, plasma, po, 7 mg/kg, read-out: Tmax", "value": "19.8 ± 8.4", "unit": "min"}, {"measurement": "clearance", "setting": "[2]; [5]", "value": 27, "unit": "mL/min/kg"}, {"measurement": "Vd", "setting": "[2]; [6]", "value": 0.35, "unit": "L/kg"}, {"measurement": "C24 h", "setting": "[3]; male rats, single oral dose Ibb 19 mg/kg (IVb molar equiv. 15 mg/kg)", "value": "<LLQ"}, {"measurement": "C24 h", "setting": "[3]; male rats, single oral dose Ibb 64 mg/kg (IVb molar equiv. 51 mg/kg)", "value": "<LLQ"}, {"measurement": "C24 h", "setting": "[3]; male rats, single oral dose Ibb 236 mg/kg (IVb molar equiv. 190 mg/kg)", "value": "<LLQ"}, {"measurement": "Cmax", "setting": "[3]; male, Sprague Dawley, rat, po, 19 mg/kg", "value": 27, "unit": "nM"}, {"measurement": "AUC", "setting": "[3]; male, Sprague Dawley, rat, po, 19 mg/kg, read-out: AUC from zero to last time point", "value": 0.03, "unit": "µM·h"}, {"measurement": "half-life", "setting": "[3]; male, Sprague Dawley, rat, po, 19 mg/kg, read-out: T1/2 (converted)", "value": 78, "unit": "min"}, {"measurement": "Cmax", "setting": "[3]; male, Sprague Dawley, rat, po, 64 mg/kg", "value": 140, "unit": "nM"}, {"measurement": "AUC", "setting": "[3]; male, Sprague Dawley, rat, po, 64 mg/kg, read-out: AUC from zero to last time point", "value": 0.18, "unit": "µM·h"}, {"measurement": "half-life", "setting": "[3]; male, Sprague Dawley, rat, po, 64 mg/kg, read-out: T1/2 (converted)", "value": 276, "unit": "min"}, {"measurement": "Cmax", "setting": "[3]; male, Sprague Dawley, rat, po, 236 mg/kg", "value": 250, "unit": "nM"}, {"measurement": "AUC", "setting": "[3]; male, Sprague Dawley, rat, po, 236 mg/kg, read-out: AUC from zero to last time point", "value": 0.49, "unit": "µM·h"}, {"measurement": "half-life", "setting": "[3]; male, Sprague Dawley, rat, po, 236 mg/kg, read-out: T1/2 (converted)", "value": 216, "unit": "min"}]}
{"molecule": "COc1cnc(-n2cnc(C)n2)c2c1c(C(=O)C(=O)N1CCN(C(=O)c3ccccc3)CC1)cn2COP(=O)(O)O", "note": "[Icb, [3-[(4-benzoylpiperazin-1-yl)(oxo)acetyl]-4-methoxy-7-(3-methyl-1H-1,2,4-triazol-1-yl)-1H-pyrrolo[2,3-c]pyridin-1-yl]methyl dihydrogen phosphate, 2-amino-2-(hydroxymethyl)propane-1,3-diol salt (1:1)]", "values": [{"measurement": "Emesis (footnote 4)", "setting": "[1]; both, dog, in vivo", "value": "^4Emesis observed within 2 hours of dosing with capsule remnant present"}, {"measurement": "Emesis (footnote 5)", "setting": "[1]; both, dog, in vivo", "value": "^5Emesis observed within 2 hours of dosing with no capsule remnant"}, {"measurement": "levels of prodrug detected in some plasma samples", "setting": "[1]; both, dog, in vivo", "value": "≤ 100", "unit": "nM"}, {"measurement": "AUC", "setting": "[2]; [7]", "value": "0.61 ± 0.2", "unit": "µM·h"}, {"measurement": "MRT", "setting": "[2]; [7]", "value": "8.4 ± 1.26", "unit": "min"}, {"measurement": "Vd", "setting": "[2]; [7]", "value": "0.5 ± 0.088", "unit": "L/kg"}, {"measurement": "clearance", "setting": "[2]; [7]", "value": "64 ± 18", "unit": "mL/min/kg"}, {"measurement": "half-life", "setting": "[2]; [7]", "value": "0.25 ± 0.1", "unit": "h"}, {"measurement": "prodrug concentrations in plasma", "setting": "[3]; male, CD, rat, in vivo, 200 mg/kg", "value": "0.02 to 0.04", "unit": "µM"}, {"measurement": "prodrug in plasma", "setting": "[3]; rat, in vivo, 25 mg/kg", "value": "not detected"}]}
